Entries after “also recorded” stand apart in the source; their conditions may differ.
Key:
cardiocytes = test: Hypertrophic action of AII on cardiocytes; assay type: cell-based
rats = test: Passive avoidance conditioning after icv injection; assay type: in vivo, rat
AT4 receptor [1] = target: T1, AT4 receptor (Bos taurus, UniProt F1N1Q8); test: 125I-AIV binding and competition, solubilized bovine adrenal cortical receptor
T1 sequence (F1N1Q8 1-1022): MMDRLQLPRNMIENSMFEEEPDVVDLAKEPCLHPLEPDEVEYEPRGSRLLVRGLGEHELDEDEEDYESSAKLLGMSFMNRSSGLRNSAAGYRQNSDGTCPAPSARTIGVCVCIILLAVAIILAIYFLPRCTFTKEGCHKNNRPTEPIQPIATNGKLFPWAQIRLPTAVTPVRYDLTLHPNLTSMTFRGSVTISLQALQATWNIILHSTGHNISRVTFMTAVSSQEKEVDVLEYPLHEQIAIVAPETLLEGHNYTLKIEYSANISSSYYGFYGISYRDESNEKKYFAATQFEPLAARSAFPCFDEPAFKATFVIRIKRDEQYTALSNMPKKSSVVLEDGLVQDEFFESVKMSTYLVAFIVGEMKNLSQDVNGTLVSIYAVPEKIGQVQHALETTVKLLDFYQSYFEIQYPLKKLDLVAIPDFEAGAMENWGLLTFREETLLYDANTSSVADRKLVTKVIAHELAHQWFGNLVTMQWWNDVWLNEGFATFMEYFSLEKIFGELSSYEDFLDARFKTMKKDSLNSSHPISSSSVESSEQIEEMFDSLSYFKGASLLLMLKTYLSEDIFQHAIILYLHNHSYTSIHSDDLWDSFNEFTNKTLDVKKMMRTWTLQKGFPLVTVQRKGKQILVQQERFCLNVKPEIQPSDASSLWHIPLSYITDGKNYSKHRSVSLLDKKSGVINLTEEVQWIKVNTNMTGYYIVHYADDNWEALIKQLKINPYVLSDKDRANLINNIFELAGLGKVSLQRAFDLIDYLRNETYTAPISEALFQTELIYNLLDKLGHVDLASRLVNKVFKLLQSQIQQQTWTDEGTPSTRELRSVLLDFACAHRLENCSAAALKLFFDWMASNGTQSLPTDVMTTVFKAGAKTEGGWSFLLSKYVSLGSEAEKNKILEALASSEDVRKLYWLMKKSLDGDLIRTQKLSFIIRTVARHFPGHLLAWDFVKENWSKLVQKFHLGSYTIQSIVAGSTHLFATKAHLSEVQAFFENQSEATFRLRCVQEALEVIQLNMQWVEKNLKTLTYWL

[2] = arterial and venous blood in man; cited from earlier work
AT4 receptor [3] = assay type: binding, rat; conditions: brain, heart, kidney, aorta, lung, liver, cultured smooth muscle cells
Protocol: A second major approach to defining separate and distinct binding sites was to examine their relative tissue and species distribution (Table 8).
*25 μg of membrane protein was incubated with 500,000 cpm of label.
Specific binding was defined as total […]
At this time, the significance of this finding is uncertain.

bovine endothelial cells = test: Endothelial cell growth (thymidine incorporation) and EDRF production; assay type: cell-based
Protocol: Cells were grown at 37° C. in 35 mm culture plates […] under 5% CO2 /95% air in Dulbecco's Modified Eagle's Medium (DMEM) supplemented with 5 μg/ml insulin and 10% (v/v) newborn bovine serum (NBBS). […] Negative controls were also included using ethidium bromide (1 mM). The cells were harvested at various times, and cellular lysates were prepared for scintillation counting by lysing and washing the cells on glass fiber filters.
Bovine aortic endothelial cells were grown at 37° C. in 35 mm culture plates under 5% CO2 in air in Dulbecco's Modified Eagle's Medium (DMEM) supplemented with 5 μg/ml insulin and 10% (v/v) newborn bovine serum (NBBS). The medium was aspirated 10-12 hours after seeding and replaced with serum-free medium. The medium was again aspirated 10-12 hours later and replaced with either test or control medium. Control medium was DMEM with 5 µg/ml insulin and 2%, 5%, or 10% (v/v) NBBS as indicated. […] The medium was changed every 48 h (i.e., with supportive DMEM medium for the remainder of the experiment).
As an adjunct to the determination of cell numbers, thymidine incorporation was measured. […] This material was then filtered under vacuum through 2.4 cm glass fiber filters (GF/A, Whatman), and the filters were washed twice with 10 ml of absolute ethanol and assayed for radioactivity by scintillation counting.

rat kidney = test: Renal cortical blood flow (laser doppler) and arterial pressure after infusion into the renal artery; assay type: in vivo
AT4 receptor [4] = target: T1, AT4 receptor; test: 125I-AIV binding and competition, bovine adrenal cortical membranes
[5] = target: T2, AT1 receptor (AII receptor) (Bos taurus, UniProt P25104); assay type: binding, bovine; conditions: competition
T2 construct: from tissue; host or cells: bovine adrenal cortex membranes
T2 sequence (P25104 1-359): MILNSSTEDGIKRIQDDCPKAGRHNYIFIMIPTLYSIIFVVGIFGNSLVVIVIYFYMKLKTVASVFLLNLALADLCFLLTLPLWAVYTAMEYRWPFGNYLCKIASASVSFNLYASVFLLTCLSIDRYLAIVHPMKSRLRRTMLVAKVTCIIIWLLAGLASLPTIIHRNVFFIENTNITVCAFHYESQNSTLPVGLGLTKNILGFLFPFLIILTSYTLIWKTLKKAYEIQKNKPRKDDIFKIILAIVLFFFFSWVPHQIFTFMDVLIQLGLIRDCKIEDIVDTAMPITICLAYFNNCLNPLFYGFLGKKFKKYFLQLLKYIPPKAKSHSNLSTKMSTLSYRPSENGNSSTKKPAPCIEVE

AT1 receptors = test: GTPγS effect on 125I-AII binding, rat vascular smooth muscle cell (RVSMC) membranes; conditions: 0.5 nM 125I-AII
AT4 receptor [6] = target: T1, AT4 receptor; test: 125I-AIV binding, aortic endothelial cell (BAEC) membranes; design: species or system bovine; conditions: 0.6 nM 125I-AIV

Structure (SMILES) | effect on hypertrophic action of AII (cardiocytes) | passive avoidance latency / cognitive effect (in words) (rats) | off-rate t1/2 (AT4 receptor [1]) [h] | half-lives [2] [min] | binding in rat tissues (in words) (AT4 receptor [3]) | EDRF production (bovine endothelial cells) | endothelial cell proliferation (thymidine incorporation) (bovine endothelial cells) | effect on renal blood flow (in words) (rat kidney; infusion into renal artery) | effect of preinfusion on blood flow response to another ligand (rat kidney; rat, in vivo) | agonist / antagonist activity (in words) (rat kidney; renal blood flow response compared to AIV) | Bmax (AT4 receptor [4]) | Ki [5] [nM] | effect on 125I-AII binding (AT1 receptors) | effect on 125I-AIV binding (AT4 receptor [6])
CC[C@H](C)[C@H](NC(=O)[C@H](Cc1ccc(O)cc1)NC(=O)[C@@H](N)C(C)C)C(=O)N[C@@H](Cc1cnc[nH]1)C(=O)N1CCC[C@H]1C(=O)N[C@@H](Cc1ccccc1)C(=O)O [AIV, Val1 Tyr2 Ile3 His4 Pro5 Phe6] | antagonizes the hypertrophic action of AII | significantly elevated latency times | 4.873 | 1.9 | not been possible to demonstrate binding | stimulating production of endothelial cell relaxing factor (EDRF) | enhancing cellular proliferation | profound and long-lasting increase in blood flow; also recorded: equally dramatic increase in flow; also recorded: dramatically increase renal blood flow and urine flow in a dose-dependent fashion | completely blocked the constrictive action of AII | full agnoistic activity | 3.82±1.12 | > 1000 |  | 
Nc1nc2c(ncn2[C@@H]2O[C@H](COP(=O)(O)OP(=O)(O)OP(O)(O)=S)[C@@H](O)[C@H]2O)c(=O)[nH]1 [GTPγS] |  |  |  |  |  |  |  |  |  |  |  |  | inhibited | no effect; also recorded: did not inhibit (or alter) binding
